Measured values from patent publication US20120034193A1, “TREATMENT OF NEUROTROPHIC FACTOR MEDIATED DISORDERS” (priority 2009, published 2012).

Experiments:
[1] = tested on: Calcium Channel L-Type, Phenylalkylamine; assay: Binding assay; set-up: species or system Rat; settings: smilagenin 1 μM
Method: (§1) The receptor binding was investigated using the following method: Sarsasapogenin was incubated with tissue or cell homogenate that expressed the receptor of interest and a known concentration a radiolabelled compound with affinity for the receptor of interest. After the incubation period the non-bound radiolabelled compound was removed and the amount of specific binding was quantified. The amount of specific binding in the presence and absence of sarsasapogenin were compared and the percent inhibition of the binding of the radiolabelled compound by sarsasapogenin was calculated. The source of the receptor, the incubation conditions, the radiolabelled compound used varied depending on each specific assay.
(§2) Using the same methods as described above, the binding of smilagenin (1 μM) to the receptors listed in Table 2 below, and the effect of smilagenin on the activity of the enzymes listed in Table 2 below, were investigated.

[2] = tested on: Glutamate, NMDA, Agonism; assay: Binding assay; set-up: species or system Rat; settings: smilagenin 1 μM
Method: as §1, §2

[3] = tested on: Rolipram; assay: Binding assay; set-up: species or system Rat; settings: smilagenin 1 μM
Method: as §1, §2

[4] = tested on: Calcium Channel L-Type, Benzothiazepine; assay: Binding assay; set-up: species or system Rat; settings: smilagenin 1 μM
Method: as §1, §2

[5] = tested on: Glutamate, NMDA, Polyamine; assay: Binding assay; set-up: species or system Rat; settings: smilagenin 1 μM
Method: as §1, §2

[6] = tested on: GABAA Muscimol, Central; assay: Binding assay; set-up: species or system Rat; settings: smilagenin 1 μM
Method: as §1, §2

[7] = tested on: Imidazoline I2, central; assay: Binding assay; set-up: species or system Rat; settings: smilagenin 1 μM
Method: as §1, §2

[8] = tested on: Potassium Channel [KA]; assay: Binding assay; set-up: species or system Rat; settings: smilagenin 1 μM
Method: as §1, §2

[9] = tested on: Glutamate, AMPA; assay: Binding assay; set-up: species or system Rat; settings: smilagenin 1 μM
Method: as §1, §2

[10] = tested on: Potassium Channel [SKCA]; assay: Binding assay; set-up: species or system Rat; settings: smilagenin 1 μM
Method: as §1, §2

[11] = tested on: Purinergic P2Y; assay: Binding assay; set-up: species or system Rat; settings: smilagenin 1 μM
Method: as §1, §2

[12] = tested on: Transporter, GABA; assay: Binding assay; set-up: species or system Rat; settings: smilagenin 1 μM
Method: as §1, §2

[13] = tested on: Thyroid Hormone; assay: Binding assay; set-up: species or system Rat; settings: smilagenin 1 μM
Method: as §1, §2

[14] = tested on: Glutamate, Kainate; assay: Binding assay; set-up: species or system Rat; settings: smilagenin 1 μM
Method: as §1, §2

[15] = tested on: Gabapentin; assay: Binding assay; set-up: species or system Rat; settings: smilagenin 1 μM
Method: as §1, §2

[16] = tested on: Inositol trisphosphate IP3; assay: Binding assay; set-up: species or system Rat; settings: smilagenin 1 μM
Method: as §1, §2

[17] = tested on: GABAA Chloride Channel, TBOB; assay: Binding assay; set-up: species or system Rat; settings: smilagenin 1 μM
Method: as §1, §2

[18] = tested on: GABAA Flunitrazepam, Central; assay: Binding assay; set-up: species or system Rat; settings: smilagenin 1 μM
Method: as §1, §2

[19] = tested on: Glutamate, NMDA, Phencyclidine; assay: Binding assay; set-up: species or system Rat; settings: smilagenin 1 μM
Method: as §1, §2

[20] = tested on: Sodium Channel, Site 2; assay: Binding assay; set-up: species or system Rat; settings: smilagenin 1 μM
Method: as §1, §2

[21] = tested on: Calcium Channel L-Type, Dihydropyridine; assay: Binding assay; set-up: species or system Rat; settings: smilagenin 1 μM
Method: as §1, §2

[22] = tested on: BDNF; assay: Striatal BDNF in MPTP-lesioned mice (ELISA); type: in vivo, C57b1/6 RJ mice; settings: smilagenin 10 mg/kg/day oral, 60 days, striatum
Method: (§3) Seven-week old male C57b1/6 RJ mice (C57 mice) received daily injections 1-methyl-4-phenyl-1,2,3,6-tetrahydropyridine (MPTP, 25 mg/kg/day, i.p., for 5 consecutive days) and oral administration of smilagenin (10 mg/kg/day) or vehicle (hydroxylpropylmethylcellulose, HPMC 0.5% w/v containing tween-80 0.2% v/v) for 60 days after which time their brains were removed for quantification of striatal levels of GDNF and BDNF using an ELISA and of dopamine transporter (DAT) levels using [I^125]-RTI binding. DAT is a marker for neuronal damage to dopaminergic neurones.

[23] = target: Sigma σ1 (Homo sapiens, UniProt Q99720); assay: Binding assay; settings: smilagenin 1 μM
Chain of Sigma σ1 (Q99720 whole entry): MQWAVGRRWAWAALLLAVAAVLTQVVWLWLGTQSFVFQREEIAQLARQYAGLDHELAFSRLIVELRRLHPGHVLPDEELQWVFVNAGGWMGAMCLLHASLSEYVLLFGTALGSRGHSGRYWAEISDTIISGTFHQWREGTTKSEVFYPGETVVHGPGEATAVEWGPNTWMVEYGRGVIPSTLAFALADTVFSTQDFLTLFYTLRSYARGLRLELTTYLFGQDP
Method: as §1, §2

[24] = target: Transporter, Choline (Rattus norvegicus, UniProt Q9JMD7); assay: Binding assay; settings: smilagenin 1 μM
Chain of Transporter, Choline (Q9JMD7 whole entry): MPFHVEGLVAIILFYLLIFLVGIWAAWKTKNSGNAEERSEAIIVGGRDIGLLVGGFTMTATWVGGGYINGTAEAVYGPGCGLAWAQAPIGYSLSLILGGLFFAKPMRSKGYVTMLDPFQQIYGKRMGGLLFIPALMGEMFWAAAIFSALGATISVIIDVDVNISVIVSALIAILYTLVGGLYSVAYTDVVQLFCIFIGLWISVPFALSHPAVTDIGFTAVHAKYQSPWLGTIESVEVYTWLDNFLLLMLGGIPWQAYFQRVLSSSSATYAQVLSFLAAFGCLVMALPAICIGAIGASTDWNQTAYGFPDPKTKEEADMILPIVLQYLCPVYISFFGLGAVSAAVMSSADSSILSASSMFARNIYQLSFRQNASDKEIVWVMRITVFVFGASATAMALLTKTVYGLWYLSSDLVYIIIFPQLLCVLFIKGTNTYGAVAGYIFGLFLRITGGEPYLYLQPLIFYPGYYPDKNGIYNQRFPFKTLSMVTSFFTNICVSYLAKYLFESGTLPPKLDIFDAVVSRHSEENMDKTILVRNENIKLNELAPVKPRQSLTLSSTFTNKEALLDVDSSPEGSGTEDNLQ
Method: as §1, §2

[25] = target: Thyrotropin Releasing Hormone (TRH) (Rattus norvegicus, UniProt Q01717); assay: Binding assay; settings: smilagenin 1 μM
Chain of Thyrotropin Releasing Hormone (TRH) (Q01717 whole entry): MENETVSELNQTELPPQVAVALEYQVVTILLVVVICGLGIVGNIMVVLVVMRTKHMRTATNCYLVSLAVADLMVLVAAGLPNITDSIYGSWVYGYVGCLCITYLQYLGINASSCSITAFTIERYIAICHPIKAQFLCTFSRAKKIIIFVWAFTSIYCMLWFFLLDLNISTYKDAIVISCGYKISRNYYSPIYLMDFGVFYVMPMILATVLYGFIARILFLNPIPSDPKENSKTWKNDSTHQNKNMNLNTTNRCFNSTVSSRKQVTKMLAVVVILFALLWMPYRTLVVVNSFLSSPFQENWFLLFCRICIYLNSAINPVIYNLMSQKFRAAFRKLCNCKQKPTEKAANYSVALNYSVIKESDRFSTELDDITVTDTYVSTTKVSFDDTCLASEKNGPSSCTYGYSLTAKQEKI
Method: as §1, §2

[26] = target: T1, G Protein-Coupled Receptor GPR 103 (Homo sapiens, UniProt Q96P65); assay: Binding assay; settings: smilagenin 1 μM
T1 construct: host or cells: tissue or cell homogenate (not specified)
T1 sequence (Q96P65 whole entry): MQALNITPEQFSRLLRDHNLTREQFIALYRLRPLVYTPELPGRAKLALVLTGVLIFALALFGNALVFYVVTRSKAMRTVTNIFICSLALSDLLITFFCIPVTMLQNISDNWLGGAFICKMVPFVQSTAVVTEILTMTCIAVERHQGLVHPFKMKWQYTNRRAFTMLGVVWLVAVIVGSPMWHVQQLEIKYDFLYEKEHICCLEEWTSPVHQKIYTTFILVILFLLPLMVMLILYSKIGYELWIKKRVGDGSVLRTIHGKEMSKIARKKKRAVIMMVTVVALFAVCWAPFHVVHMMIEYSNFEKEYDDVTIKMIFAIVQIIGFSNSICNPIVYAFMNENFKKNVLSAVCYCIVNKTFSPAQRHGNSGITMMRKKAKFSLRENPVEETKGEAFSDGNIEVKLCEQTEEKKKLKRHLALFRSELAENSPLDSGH
Method: as §1, §2

[27] = target: Calcitonin Gene-Related Peptide CGRP1 (Homo sapiens, UniProt O60894+Q16602); assay: Binding assay; settings: smilagenin 1 μM
Chain of Calcitonin Gene-Related Peptide CGRP1 (Q16602 23-461): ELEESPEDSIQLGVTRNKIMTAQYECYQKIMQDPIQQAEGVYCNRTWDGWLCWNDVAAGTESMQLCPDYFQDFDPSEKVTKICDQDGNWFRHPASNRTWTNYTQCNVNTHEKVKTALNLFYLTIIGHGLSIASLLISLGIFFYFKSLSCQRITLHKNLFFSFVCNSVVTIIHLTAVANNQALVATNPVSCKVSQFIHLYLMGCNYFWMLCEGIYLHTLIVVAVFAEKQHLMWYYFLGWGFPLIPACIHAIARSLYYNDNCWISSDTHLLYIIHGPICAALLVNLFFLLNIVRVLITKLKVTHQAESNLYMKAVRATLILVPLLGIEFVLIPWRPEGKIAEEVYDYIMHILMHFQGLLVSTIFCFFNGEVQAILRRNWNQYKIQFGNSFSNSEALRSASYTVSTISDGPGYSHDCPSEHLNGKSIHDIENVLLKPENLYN
Chain of Calcitonin Gene-Related Peptide CGRP1 (O60894 27-148 partner): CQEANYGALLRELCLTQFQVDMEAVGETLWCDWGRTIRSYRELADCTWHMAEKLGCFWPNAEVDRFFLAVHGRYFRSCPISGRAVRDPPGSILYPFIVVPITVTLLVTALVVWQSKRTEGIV
Method: as §1, §2

[28] = target: Endothelin ETA (Homo sapiens, UniProt P25101); assay: Binding assay; settings: smilagenin 1 μM
Chain of Endothelin ETA (P25101 21-427): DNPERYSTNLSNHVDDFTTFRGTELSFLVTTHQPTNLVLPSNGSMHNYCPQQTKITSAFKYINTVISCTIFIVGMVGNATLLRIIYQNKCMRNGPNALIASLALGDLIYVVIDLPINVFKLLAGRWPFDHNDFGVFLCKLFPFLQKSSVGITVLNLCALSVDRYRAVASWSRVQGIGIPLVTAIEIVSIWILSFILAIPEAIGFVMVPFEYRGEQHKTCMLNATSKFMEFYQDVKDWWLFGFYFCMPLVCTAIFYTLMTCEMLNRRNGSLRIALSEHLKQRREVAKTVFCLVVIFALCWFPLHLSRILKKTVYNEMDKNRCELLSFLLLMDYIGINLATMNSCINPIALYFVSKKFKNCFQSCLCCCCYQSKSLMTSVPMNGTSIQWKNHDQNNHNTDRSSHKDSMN
Method: as §1, §2

[29] = target: Angiotensin AT1 (Homo sapiens, UniProt P30556); assay: Binding assay; settings: smilagenin 1 μM
Chain of Angiotensin AT1 (P30556 whole entry): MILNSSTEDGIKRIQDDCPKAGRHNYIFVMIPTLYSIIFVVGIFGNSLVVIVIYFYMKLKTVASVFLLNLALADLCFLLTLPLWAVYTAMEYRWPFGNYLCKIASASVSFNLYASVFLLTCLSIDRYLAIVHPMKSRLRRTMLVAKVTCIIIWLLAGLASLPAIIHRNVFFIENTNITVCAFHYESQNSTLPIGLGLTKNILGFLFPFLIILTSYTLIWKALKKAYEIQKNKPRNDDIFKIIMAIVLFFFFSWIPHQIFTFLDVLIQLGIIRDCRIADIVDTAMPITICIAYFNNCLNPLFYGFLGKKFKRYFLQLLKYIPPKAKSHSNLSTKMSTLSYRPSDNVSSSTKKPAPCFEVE
Method: as §1, §2

[30] = tested on: Purinergic P2X; assay: Binding assay; settings: smilagenin 1 μM
Method: as §1, §2

[31] = target: Androgen (testosterone) AR (Rattus norvegicus, UniProt P15207); assay: Binding assay; settings: smilagenin 1 μM
Method: as §1, §2

[32] = target: Opiate κ (OP2, KOP) (Homo sapiens, UniProt P41145); assay: Binding assay; settings: smilagenin 1 μM
Chain of Opiate κ (OP2, KOP) (P41145 whole entry): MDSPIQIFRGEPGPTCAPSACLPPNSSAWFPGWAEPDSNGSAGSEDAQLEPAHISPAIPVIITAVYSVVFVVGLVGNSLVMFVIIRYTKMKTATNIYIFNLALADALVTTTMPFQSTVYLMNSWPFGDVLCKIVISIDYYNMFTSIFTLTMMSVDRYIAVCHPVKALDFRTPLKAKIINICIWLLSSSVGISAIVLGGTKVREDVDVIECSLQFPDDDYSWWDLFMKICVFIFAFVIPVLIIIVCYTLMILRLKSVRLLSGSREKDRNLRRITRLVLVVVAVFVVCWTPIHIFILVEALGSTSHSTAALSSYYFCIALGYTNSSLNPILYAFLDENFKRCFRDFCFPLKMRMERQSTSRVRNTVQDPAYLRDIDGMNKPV
Method: as §1, §2

[33] = target: Progesterone PR-B (Homo sapiens, UniProt P06401); assay: Binding assay; settings: smilagenin 1 μM
Chain of Progesterone PR-B (P06401 whole entry): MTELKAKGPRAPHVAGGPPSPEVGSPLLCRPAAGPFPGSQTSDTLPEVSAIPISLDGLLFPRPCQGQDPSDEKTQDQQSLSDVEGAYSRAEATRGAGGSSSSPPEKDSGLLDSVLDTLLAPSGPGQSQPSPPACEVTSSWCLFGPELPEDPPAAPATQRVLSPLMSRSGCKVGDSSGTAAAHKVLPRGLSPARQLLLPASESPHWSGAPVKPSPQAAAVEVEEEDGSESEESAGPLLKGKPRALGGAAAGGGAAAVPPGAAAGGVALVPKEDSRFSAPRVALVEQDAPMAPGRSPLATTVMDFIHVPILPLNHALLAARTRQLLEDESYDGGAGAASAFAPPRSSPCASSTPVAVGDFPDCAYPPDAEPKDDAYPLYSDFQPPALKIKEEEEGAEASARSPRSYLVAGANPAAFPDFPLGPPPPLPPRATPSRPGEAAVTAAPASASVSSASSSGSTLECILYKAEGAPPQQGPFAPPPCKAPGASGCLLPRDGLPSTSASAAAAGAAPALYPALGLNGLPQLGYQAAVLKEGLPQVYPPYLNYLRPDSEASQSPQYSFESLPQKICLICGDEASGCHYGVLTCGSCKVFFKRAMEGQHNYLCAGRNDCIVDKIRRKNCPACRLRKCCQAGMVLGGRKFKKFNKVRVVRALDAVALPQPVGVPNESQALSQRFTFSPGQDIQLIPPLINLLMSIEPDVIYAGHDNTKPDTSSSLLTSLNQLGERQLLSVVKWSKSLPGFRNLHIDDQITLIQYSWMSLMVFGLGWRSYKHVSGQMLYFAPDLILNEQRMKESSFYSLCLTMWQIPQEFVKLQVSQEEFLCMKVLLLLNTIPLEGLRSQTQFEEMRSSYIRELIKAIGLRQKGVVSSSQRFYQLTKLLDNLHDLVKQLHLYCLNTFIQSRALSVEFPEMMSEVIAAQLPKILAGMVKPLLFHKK
Method: as §1, §2

[34] = target: Calcitonin (Homo sapiens, UniProt P30988); assay: Binding assay; settings: smilagenin 1 μM
Chain of Calcitonin (P30988 25-474): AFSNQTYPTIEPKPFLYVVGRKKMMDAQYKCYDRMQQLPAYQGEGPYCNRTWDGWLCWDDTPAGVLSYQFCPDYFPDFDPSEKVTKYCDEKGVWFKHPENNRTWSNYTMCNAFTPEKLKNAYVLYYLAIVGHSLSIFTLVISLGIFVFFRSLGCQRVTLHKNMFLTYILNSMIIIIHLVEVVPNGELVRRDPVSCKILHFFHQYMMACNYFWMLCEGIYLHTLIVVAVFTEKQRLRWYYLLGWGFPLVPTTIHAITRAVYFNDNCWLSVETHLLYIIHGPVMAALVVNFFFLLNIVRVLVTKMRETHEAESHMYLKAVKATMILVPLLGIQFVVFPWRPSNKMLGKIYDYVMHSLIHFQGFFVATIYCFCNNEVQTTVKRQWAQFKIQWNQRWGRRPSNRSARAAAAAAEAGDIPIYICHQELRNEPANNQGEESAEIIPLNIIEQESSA
Method: as §1, §2

[35] = tested on: GDNF; assay: Striatal GDNF in MPTP-lesioned mice (ELISA); type: in vivo, C57b1/6 RJ mice; settings: smilagenin 10 mg/kg/day oral, 60 days, striatum
Method: as §3

Compound: C[C@@H]1CC[C@@]2(OC1)O[C@H]1C[C@H]3[C@@H]4CC[C@@H]5C[C@@H](O)CC[C@]5(C)[C@H]4CC[C@]3(C)[C@H]1[C@@H]2C [Smilagenin, smilagenin]
- Effect (%) [1]: NS (NS = No significant response. Significance was taken as ≧30% stimulation or inhibition)
- Effect (%) [2]: NS (NS = No significant response. Significance was taken as ≧30% stimulation or inhibition)
- Effect (%) [3]: NS (NS = No significant response. Significance was taken as ≧30% stimulation or inhibition)
- Effect (%) [4]: NS (NS = No significant response. Significance was taken as ≧30% stimulation or inhibition)
- Effect (%) [5]: NS (NS = No significant response. Significance was taken as ≧30% stimulation or inhibition)
- Effect (%) [6]: NS (NS = No significant response. Significance was taken as ≧30% stimulation or inhibition)
- Effect (%) [7]: NS (NS = No significant response. Significance was taken as ≧30% stimulation or inhibition)
- Effect (%) [8]: NS (NS = No significant response. Significance was taken as ≧30% stimulation or inhibition)
- Effect (%) [9]: NS (NS = No significant response. Significance was taken as ≧30% stimulation or inhibition)
- Effect (%) [10]: NS (NS = No significant response. Significance was taken as ≧30% stimulation or inhibition)
- Effect (%) [11]: NS (NS = No significant response. Significance was taken as ≧30% stimulation or inhibition)
- Effect (%) [12]: NS (NS = No significant response. Significance was taken as ≧30% stimulation or inhibition)
- Effect (%) [13]: NS (NS = No significant response. Significance was taken as ≧30% stimulation or inhibition)
- Effect (%) [14]: NS (NS = No significant response. Significance was taken as ≧30% stimulation or inhibition)
- Effect (%) [15]: NS (NS = No significant response. Significance was taken as ≧30% stimulation or inhibition)
- Effect (%) [16]: NS (NS = No significant response. Significance was taken as ≧30% stimulation or inhibition)
- Effect (%) [17]: NS (NS = No significant response. Significance was taken as ≧30% stimulation or inhibition)
- Effect (%) [18]: NS (NS = No significant response. Significance was taken as ≧30% stimulation or inhibition)
- Effect (%) [19]: NS (NS = No significant response. Significance was taken as ≧30% stimulation or inhibition)
- Effect (%) [20]: NS (NS = No significant response. Significance was taken as ≧30% stimulation or inhibition)
- Effect (%) [21]: NS (NS = No significant response. Significance was taken as ≧30% stimulation or inhibition)
- BDNF (% increase above MPTP mice) [22]: 164 ± 53 %
- BDNF (pg/mg tissue) [22]: 46.91 ± 9.97 pg/mg tissue
- Effect (%) [23]: NS (NS = No significant response. Significance was taken as ≧30% stimulation or inhibition)
- Effect (%) [24]: NS (NS = No significant response. Significance was taken as ≧30% stimulation or inhibition)
- Effect (%) [25]: NS (NS = No significant response. Significance was taken as ≧30% stimulation or inhibition)
- Effect (%) [26]: NS (NS = No significant response. Significance was taken as ≧30% stimulation or inhibition)
- Effect (%) [27]: NS (NS = No significant response. Significance was taken as ≧30% stimulation or inhibition)
- Effect (%) [28]: NS (NS = No significant response. Significance was taken as ≧30% stimulation or inhibition)
- Effect (%) [29]: NS (NS = No significant response. Significance was taken as ≧30% stimulation or inhibition)
- Effect (%) [30]: NS (NS = No significant response. Significance was taken as ≧30% stimulation or inhibition)
- Effect (%) [31]: NS (NS = No significant response. Significance was taken as ≧30% stimulation or inhibition)
- Effect (%) [32]: NS (NS = No significant response. Significance was taken as ≧30% stimulation or inhibition)
- Effect (%) [33]: NS (NS = No significant response. Significance was taken as ≧30% stimulation or inhibition)
- Effect (%) [34]: NS (NS = No significant response. Significance was taken as ≧30% stimulation or inhibition)
- GDNF (% increase above MPTP mice) [35]: 372 ± 92 %
- GDNF (pg/mg tissue) [35]: 275.31 ± 59.62 pg/mg tissue
